In ChEMBL document CHEMBL1909046, “DrugMatrix in vitro pharmacology data”:

Columns and labels:
[1] = target: T1, Alpha-1D adrenergic receptor (Homo sapiens, UniProt P25100); type: cell membranes, HEK293, Membrane; further: in other assays of this panel Not Active means under 50% inhibition at 10 µM
T1 sequence (P25100 whole entry): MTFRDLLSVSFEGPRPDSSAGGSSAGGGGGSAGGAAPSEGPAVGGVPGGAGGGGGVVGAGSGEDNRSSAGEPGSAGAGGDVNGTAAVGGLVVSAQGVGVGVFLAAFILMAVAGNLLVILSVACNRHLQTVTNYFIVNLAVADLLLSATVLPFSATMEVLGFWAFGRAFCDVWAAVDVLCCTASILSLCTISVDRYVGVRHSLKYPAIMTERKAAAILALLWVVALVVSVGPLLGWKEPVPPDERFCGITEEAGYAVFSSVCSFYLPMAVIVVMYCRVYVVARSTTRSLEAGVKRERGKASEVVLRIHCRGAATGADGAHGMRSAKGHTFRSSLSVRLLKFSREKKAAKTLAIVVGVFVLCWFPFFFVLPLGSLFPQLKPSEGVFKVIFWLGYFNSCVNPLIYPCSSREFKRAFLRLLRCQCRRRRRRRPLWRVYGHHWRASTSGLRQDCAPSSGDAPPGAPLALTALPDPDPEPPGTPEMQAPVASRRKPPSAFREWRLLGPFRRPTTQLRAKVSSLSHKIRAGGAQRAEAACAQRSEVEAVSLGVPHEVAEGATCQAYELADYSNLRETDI

[2] = target: T2, Receptor-type tyrosine-protein phosphatase C (Homo sapiens, UniProt P08575); parameters: species or system Escherichia coli;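 further: inhibition of CD45 enzyme activity measured using DiFMUP as substrate; in other assays of this panel Not Active means under 50% inhibition at 10 µM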
T2 sequence (P08575 whole entry): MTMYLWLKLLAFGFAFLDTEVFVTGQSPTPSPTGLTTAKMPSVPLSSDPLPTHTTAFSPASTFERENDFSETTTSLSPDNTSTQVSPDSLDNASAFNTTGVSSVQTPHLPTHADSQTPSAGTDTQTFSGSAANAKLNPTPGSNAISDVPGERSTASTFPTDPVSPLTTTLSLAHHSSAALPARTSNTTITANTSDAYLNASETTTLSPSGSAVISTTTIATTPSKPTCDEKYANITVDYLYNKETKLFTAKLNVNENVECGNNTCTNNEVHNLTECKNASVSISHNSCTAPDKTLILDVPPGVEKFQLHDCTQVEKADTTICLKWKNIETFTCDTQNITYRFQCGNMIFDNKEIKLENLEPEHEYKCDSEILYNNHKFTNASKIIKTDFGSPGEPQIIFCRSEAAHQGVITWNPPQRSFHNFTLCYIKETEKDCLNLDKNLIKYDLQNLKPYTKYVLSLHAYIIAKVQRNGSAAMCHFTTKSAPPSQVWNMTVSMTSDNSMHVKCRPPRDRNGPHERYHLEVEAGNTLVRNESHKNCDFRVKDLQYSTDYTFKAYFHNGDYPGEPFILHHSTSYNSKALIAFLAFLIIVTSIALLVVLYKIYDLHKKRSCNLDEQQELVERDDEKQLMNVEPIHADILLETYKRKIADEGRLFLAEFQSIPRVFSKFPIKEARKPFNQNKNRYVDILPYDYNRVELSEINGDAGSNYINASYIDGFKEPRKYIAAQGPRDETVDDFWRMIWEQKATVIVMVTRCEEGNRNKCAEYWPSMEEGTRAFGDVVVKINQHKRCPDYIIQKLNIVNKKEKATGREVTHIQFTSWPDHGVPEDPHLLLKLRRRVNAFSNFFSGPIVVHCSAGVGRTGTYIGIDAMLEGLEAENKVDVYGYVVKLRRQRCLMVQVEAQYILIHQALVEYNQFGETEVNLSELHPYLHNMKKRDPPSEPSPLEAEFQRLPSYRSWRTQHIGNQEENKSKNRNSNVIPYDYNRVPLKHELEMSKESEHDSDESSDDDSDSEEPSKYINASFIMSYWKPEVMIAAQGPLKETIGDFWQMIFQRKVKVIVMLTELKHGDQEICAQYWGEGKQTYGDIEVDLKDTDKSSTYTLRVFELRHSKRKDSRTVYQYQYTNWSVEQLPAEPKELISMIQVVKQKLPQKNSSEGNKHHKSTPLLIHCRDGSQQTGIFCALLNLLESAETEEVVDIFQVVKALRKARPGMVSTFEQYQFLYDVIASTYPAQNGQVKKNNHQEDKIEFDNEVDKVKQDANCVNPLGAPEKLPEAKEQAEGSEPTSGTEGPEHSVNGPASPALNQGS

[3] = target: 5-hydroxytryptamine receptor 4 (Cavia porcellus, UniProt O70528); type: cell membranes, Dunkin-Hartley, Striatum, Membrane; further: in other assays of this panel Not Active means under 50% inhibition at 10 µM
[4] = target: T3, Cathepsin G (Homo sapiens, UniProt P08311); type: tissue-based; conditions: neutrophil;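 further: inhibition of Cathepsin G enzyme activity, tested on an AMC-conjugated peptide substrate; in other assays of this panel Not Active means under 50% inhibition at 10 µM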
T3 sequence (P08311 whole entry): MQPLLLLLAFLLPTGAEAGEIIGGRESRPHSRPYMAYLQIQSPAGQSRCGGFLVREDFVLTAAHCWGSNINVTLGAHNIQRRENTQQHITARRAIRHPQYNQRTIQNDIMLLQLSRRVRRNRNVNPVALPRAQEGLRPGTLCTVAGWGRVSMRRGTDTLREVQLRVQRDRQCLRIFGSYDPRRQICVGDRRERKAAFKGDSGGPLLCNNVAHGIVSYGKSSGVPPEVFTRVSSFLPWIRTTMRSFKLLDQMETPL

[5] = target: D(3) dopamine receptor (Homo sapiens, UniProt P35462); experiment: DRUGMATRIX: Dopamine D3 radioligand binding (ligand: [3H] Spiperone); type: cell membranes, CHO, Membrane
Chain of D(3) dopamine receptor (P35462 whole entry): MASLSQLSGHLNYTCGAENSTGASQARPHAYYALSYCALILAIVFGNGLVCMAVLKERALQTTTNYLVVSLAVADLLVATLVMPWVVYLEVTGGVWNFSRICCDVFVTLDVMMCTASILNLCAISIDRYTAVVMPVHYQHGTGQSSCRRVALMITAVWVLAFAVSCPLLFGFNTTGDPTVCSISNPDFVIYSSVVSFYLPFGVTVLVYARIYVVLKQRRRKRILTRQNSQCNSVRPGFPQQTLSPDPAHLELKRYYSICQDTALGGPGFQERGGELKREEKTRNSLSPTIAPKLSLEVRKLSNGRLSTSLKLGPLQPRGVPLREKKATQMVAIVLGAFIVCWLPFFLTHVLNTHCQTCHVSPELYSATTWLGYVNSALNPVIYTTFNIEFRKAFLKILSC

Chain of 5-hydroxytryptamine receptor 4 (O70528 whole entry): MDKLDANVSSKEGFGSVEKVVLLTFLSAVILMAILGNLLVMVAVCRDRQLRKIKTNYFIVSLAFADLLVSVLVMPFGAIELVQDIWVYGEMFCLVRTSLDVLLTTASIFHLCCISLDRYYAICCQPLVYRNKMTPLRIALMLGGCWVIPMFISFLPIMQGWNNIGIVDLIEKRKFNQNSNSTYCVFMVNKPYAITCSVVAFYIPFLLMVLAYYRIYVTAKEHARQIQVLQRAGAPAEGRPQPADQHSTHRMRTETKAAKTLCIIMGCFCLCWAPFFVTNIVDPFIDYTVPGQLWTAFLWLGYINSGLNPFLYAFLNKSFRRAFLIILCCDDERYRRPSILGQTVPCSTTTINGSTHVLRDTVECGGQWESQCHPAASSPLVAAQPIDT

Molecule	IC50 ([1]; hek293)	IC50 [2]	IC50 [3]	IC50 [4]	IC50 ([5]; cho)	further results
Cc1ccc(/N=C/N(C)/C=N/c2ccc(C)cc2C)c(C)c1 [AMITRAZ]	Not Active	Not Active	Not Active	Not Active	Not Active	–
CNNCc1ccc(C(=O)NC(C)C)cc1 [PROCARBAZINE]	Not Active	Not Active	Not Active	Not Active	Not Active	–
CN(C)c1nc(N(C)C)nc(N(C)C)n1 [ALTRETAMINE]	Not Active	Not Active	Not Active	Not Active	Not Active	–
OC(Cn1cncn1)(Cn1cncn1)c1ccc(F)cc1F [FLUCONAZOLE]	Not Active	Not Active	Not Active	Not Active	Not Active	–
C[C@]12CCC(=O)C=C1CC[C@@H]1[C@@H]2CC[C@@]2(C)[C@H]1CC[C@]2(C)O [METHYLTESTOSTERONE]	Not Active	Not Active	Not Active	Not Active	Not Active	–
O=c1oc2ccccc2c(O)c1Cc1c(O)c2ccccc2oc1=O [DICUMAROL]	Not Active	Not Active	Not Active	Not Active	Not Active	–
N=C(N)NCCN1CCCCCCC1 [GUANETHIDINE]	Not Active	Not Active	Not Active	Not Active	Not Active	–
Cc1cc(C2CCCCC2)n(O)c(=O)c1 [CICLOPIROX]	Not Active	Not Active	Not Active	Not Active	Not Active	–
CCOc1ccc(NC(C)=O)cc1 [PHENACETIN]	Not Active	Not Active	Not Active	Not Active	Not Active	–
NC1=NC(=O)C(c2ccccc2)O1 (stereo not given) [PEMOLINE]	Not Active	Not Active	Not Active	Not Active	Not Active	–
C[C@H](CCC(=O)O)[C@H]1CC[C@H]2[C@@H]3[C@H](O)C[C@@H]4C[C@H](O)CC[C@]4(C)[C@H]3C[C@H](O)[C@]12C [CHOLIC ACID]	Not Active	Not Active	Not Active	Not Active	Not Active	–
CC(C)C(Br)C(=O)NC(N)=O (stereo not given) [BROMISOVALUM]	Not Active	Not Active	Not Active	Not Active	Not Active	–
C[C@H]1c2cccc(O)c2C(=O)C2=C(O)[C@]3(O)C(=O)C(C(N)=O)=C(O)[C@@H](N(C)C)[C@@H]3[C@@H](O)[C@@H]21.O [DOXYCYCLINE]	Not Active	Not Active	Not Active	Not Active	Not Active	–
CNCCCN1c2ccccc2CCc2ccccc21 [DESIPRAMINE]	Not Active	Not Active	Not Active	Not Active	Not Active	–
C[C@H](CS)C(=O)N1CCC[C@H]1C(=O)O [CAPTOPRIL]	Not Active	Not Active	Not Active	Not Active	Not Active	–
CC(O)CO (stereo not given) [PROPYLENE GLYCOL]	Not Active	Not Active	Not Active	Not Active	Not Active	–

Molecule	IC50 ([1]; hek293)	IC50 [2]	IC50 [3]	IC50 [4]	IC50 ([5]; cho)	further results
Cc1c(O)c(=O)ccn1C [DEFERIPRONE]	Not Active	Not Active	Not Active	Not Active	Not Active	–
CC(C)[C@@]1(NC(=O)[C@@H]2C[C@@H]3c4cccc5[nH]cc(c45)C[C@H]3N(C)C2)O[C@@]2(O)[C@@H]3CCCN3C(=O)[C@H](Cc3ccccc3)N2C1=O.CS(=O)(=O)O [DIHYDROERGOCRISTINE MESYLATE]	–	Not Active	–	Not Active	–	IC50 ([1]; read-out: IC50): 7.37 nM; Ki ([1]; read-out: Ki): 3.62 nM; IC50 ([3]; read-out: IC50): 4910 nM; Ki ([3]; read-out: Ki): 819 nM; IC50 ([5]; read-out: IC50): 2.29 nM; Ki ([5]; read-out: Ki): 0.777 nM
C1CCC(C(CC2CCCCN2)C2CCCCC2)CC1 (stereo not given) [PERHEXILINE]	Not Active	Not Active	Not Active	Not Active	Not Active	–
c1ccc2c(c1)c1cccc3ccc4cccc2c4c31 [BENZO[E]PYRENE]	Not Active	Not Active	Not Active	Not Active	Not Active	–
C[C@]12CC[C@@H]3c4ccc(O)cc4CC[C@H]3[C@@H]1CCC2=O [ESTRONE]	Not Active	Not Active	Not Active	Not Active	Not Active	–
CNCCc1ccccn1 [BETAHISTINE]	Not Active	Not Active	Not Active	Not Active	Not Active	–
Cc1ccccc1N1C(=O)c2cc(S(N)(=O)=O)c(Cl)cc2NC1C (stereo not given) [METOLAZONE]	Not Active	Not Active	Not Active	Not Active	Not Active	–
O=C1CC[C@@H](N2C(=O)c3ccccc3C2=O)C(=O)N1	Not Active	Not Active	Not Active	Not Active	Not Active	–
Nc1c(Br)cc(Br)cc1CN[C@H]1CC[C@H](O)CC1 [AMBROXOL]	Not Active	Not Active	Not Active	Not Active	Not Active	–
Nc1nc2c(ncn2COCCO)c(=O)[nH]1 [ACYCLOVIR]	Not Active	Not Active	Not Active	Not Active	Not Active	–
CN(C)CCCN1c2ccccc2Sc2ccccc21 [PROMAZINE]	–	Not Active	Not Active	Not Active	–	IC50 ([1]; read-out: IC50): 13 nM; Ki ([1]; read-out: Ki): 6.18 nM; IC50 ([5]; read-out: IC50): 205 nM; Ki ([5]; read-out: Ki): 69 nM
CC1(C)O[C@@H]2C[C@H]3[C@@H]4CCC5=CC(=O)CC[C@]5(C)[C@@]4(F)[C@@H](O)C[C@]3(C)[C@]2(C(=O)CCl)O1 [HALCINONIDE]	Not Active	Not Active	Not Active	Not Active	Not Active	–
CC1CC(OC(=O)C(O)c2ccccc2)CC(C)(C)C1 (stereo not given) [CYCLANDELATE]	Not Active	Not Active	Not Active	Not Active	Not Active	–
LEAD (II) ACETATE	Not Active	Not Active	Not Active	Not Active	Not Active	Ki ([1]; hek293): Not Active; Ki [2]: Not Active; Ki [3]: Not Active; Ki [4]: Not Active; Ki ([5]; cho): Not Active
Sc1ncnc2nc[nH]c12 [MERCAPTOPURINE ANHYDROUS]	Not Active	Not Active	Not Active	Not Active	Not Active	–
